These results are taken from article PMC7397174, “4-Arylthieno[2,3-b]pyridine-2-carboxamides Are a New Class of Antiplasmodial Agents” (Molecules, 2020).

Structures can show the parent of a compound that is named as a salt.

For data set [1], the target named is rPfGSK-3 (Plasmodium falciparum, UniProt O77344). The data set can be described thus: KinaseGlo Plus assay for inhibition of PfGSK-3. Particulars: 10 µM; remaining activity, calculated on DMSO controls; Table 3; read-out: rPfGSK-3 Activity at 10 µM [%]. The class given is biochemical.
Data set [2] in a line: in vitro. In kind it is cell-based, human. Particulars: human, HEK293T Viability at 30 µM [%]. The method, then: Cytotoxic effects of test compounds on eukaryotic cells were investigated using a HEK293T cell viability assay. First, the cell density of a HEK293T culture was determined. […] The supernatant was then aspirated and fresh culture medium was added to 200 μL into which the test compounds were previously added. All substances were previously dissolved in DMSO. […] The viability of the cells was then examined by adding PrestoBlue® Cell Viability Agent (Invitrogen, Carlsbad, CA, USA). The supernatant was removed, 10% PrestoBlue® was added in preheated PBS and the culture was incubated for 30 min at 37 °C. In cells with an active metabolism, the PrestoBlue dye is reduced, causing it to fluorescence. The fluorescence (λex = 560 nm, λem = 590 nm) was measured in an EnVision Multilable Plate Reader (Perkin Elmer, Waltham, MA, USA; integration time 0.1 sec/well).

In data set [3] the test system is erythrocytic forms of P. falciparum (strain 3D7). Kind of data set: Viability screening of antiplasmodial activity (SYBR-gold DNA quantification, 96 h). In kind it is cell-based, Plasmodium falciparum. Particulars: for activity at 0.3 µM / activity at 3 µM / IC50: Plasmodium falciparum; for activity at 0.3 µM / activity at 3 µM: 96 h, strain 3D7, calculated on DMSO controls; for activity at 0.3 µM: read-out: Parasitemia (3D7) at 0.3 µM [%]; for activity at 3 µM: read-out: Parasitemia (3D7) at 3 µM [%]; for SI (Selectivity index for 3D7 erythrocytic forms versus HEK293 cells): 3D7 versus HEK293 cells; for IC50: 3D7, strain 3D7, erythrocytic forms.

Chain of rPfGSK-3 (O77344 entry or part of it): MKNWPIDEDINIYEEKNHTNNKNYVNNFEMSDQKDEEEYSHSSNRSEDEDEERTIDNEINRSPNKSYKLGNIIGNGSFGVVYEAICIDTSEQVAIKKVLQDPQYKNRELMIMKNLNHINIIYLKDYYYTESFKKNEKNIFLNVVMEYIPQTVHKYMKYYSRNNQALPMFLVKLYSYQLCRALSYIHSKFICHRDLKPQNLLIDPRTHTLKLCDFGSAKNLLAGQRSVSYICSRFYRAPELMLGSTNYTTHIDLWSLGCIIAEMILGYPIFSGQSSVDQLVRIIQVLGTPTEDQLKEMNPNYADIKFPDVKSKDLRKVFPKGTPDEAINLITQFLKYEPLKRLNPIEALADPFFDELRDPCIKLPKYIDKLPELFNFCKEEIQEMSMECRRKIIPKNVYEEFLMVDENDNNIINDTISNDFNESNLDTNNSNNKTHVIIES

For the molecule `N#Cc1c(N)nc2sc(C(=O)Nc3ccccc3Cl)c(N)c2c1-c1ccc(N2CCCC2)cc1Cl` [Compound 9t, 3,6-Diamino-4-[2-chloro-4-(pyrrolidin-1-yl)phenyl]-N-(2-chlorophenyl)-5-cyanothieno[2,3-b]pyridine-2-carboxamide], in data set [1], the remaining activity at 10 µM was 105 ± 6.6%. The viability at 48 h, 30 µM in data set [2] was determined as 99 ± 22.6%. In data set [3], the activity at 0.3 µM is 68.9 ± 27.3% and the activity at 3 µM is 60.6 ± 23.7%.
For `N#Cc1c(N)nc2sc(C(=O)Nc3ccc(F)cc3)c(N)c2c1-c1ccc(N2CCCC2)cc1Cl` [Compound 9aa, 3,6-Diamino-4-[2-chloro-4-(pyrrolidin-1-yl)phenyl]-5-cyano-N-(4-fluorophenyl)thieno[2,3-b]pyridine-2-carboxamide], in that order: 101 ± 3.7%, 74 ± 8.6%, 61.8 ± 27.7% and 5.3 ± 2.6%.
On the same counts, the results for `CN(C)CCN(C)c1ccc(-c2c(C#N)c(N)nc3sc(C(=O)Nc4cccc(Cl)c4)c(N)c23)c(Cl)c1` [Compound 9af, 3,6-Diamino-4-(2-chloro-4-{[2-(dimethylamino)ethyl](methyl)amino}phenyl)-N-(3-chlorophenyl)-5-cyanothieno[2,3-b]pyridine-2-carboxamide] are 107 ± 11.2%, -7.4 ± 6.4%, 5.8 ± 4.7% and 4.5 ± 7.4%.
With `N#Cc1c(N)nc2sc(C(=O)Nc3ccc(Cl)cc3)c(N)c2c1-c1ccc(N2CCOCC2)cc1Cl` [Compound 9v, 3,6-Diamino-4-(2-chloro-4-morpholinophenyl)-N-(4-chlorophenyl)-5-cyanothieno[2,3-b]pyridine-2-carboxamide], the remaining activity at 10 µM in data set [1] is 91.8 ± 18.7%. Further, the viability at 48 h, 30 µM in data set [2] was 92.3 ± 18.8%. Also, in data set [3], the “SI (Selectivity index for 3D7 erythrocytic forms versus HEK293 cells)” value is over 20, the IC50 is 1470 nM, the activity at 0.3 µM was 51.8 ± 38.6% and the activity at 3 µM is 6.2 ± 6.1%.
As for `Cc1cccc(-c2c(C#N)c(N)nc3sc(C(=O)Nc4ccccc4Cl)c(N)c23)c1` [Compound 9f, 3,6-Diamino-N-(2-chlorophenyl)-5-cyano-4-(3-methylphenyl)thieno[2,3-b]pyridine-2-carboxamide], the remaining activity at 10 µM in data set [1] is 90.9 ± 14.2%. For the same molecule, the viability at 48 h, 30 µM in data set [2] was 93.6 ± 29.9%. Also, in data set [3], the activity at 0.3 µM is 80.2 ± 20.3% and the activity at 3 µM was 51.6 ± 15.7%.
On the same counts, the results for `Cc1cccc(-c2c(C#N)c(N)nc3sc(C(=O)NC(C)C)c(N)c23)c1` [Compound 9l, 3,6-Diamino-5-cyano-N-isopropyl-4-(3-methylphenyl)thieno[2,3-b]pyridine-2-carboxamide] are 54.1 ± 15.5%, 70.6 ± 23%, 80.6 ± 22% and 79.8 ± 20.3%.
On the same counts, the results for `N#Cc1c(N)nc2sc(C(=O)Nc3ccc(Cl)cc3)c(N)c2c1-c1cccc(F)c1` [Compound 9h, 3,6-Diamino-N-(4-chlorophenyl)-5-cyano-4-(3-fluorophenyl)thieno[2,3-b]pyridine-2-carboxamide] are 104 ± 13.3%, 90.7 ± 13.2%, 63.2 ± 19.5% and 3.9 ± 2.9%.
On the same counts, the results for `CC(C)(C)OC(=O)N1CCN(c2ccc(-c3c4c(nc5sc(C(=O)Nc6ccc(Cl)cc6)c(N)c35)CCC4)c(Cl)c2)CC1` [Compound 17a, tert-Butyl 4-(4-{3-amino-2-[(4-chlorophenyl)carbamoyl]-6,7-dihydro-5H-cyclopenta[b]thieno[3,2-e]-pyridin-4-yl}-3-chlorophenyl)piperazine-1-carboxylate] are 102 ± 4%, 93.9 ± 6.5%, 50.5 ± 26.3% and 8 ± 10.2%.
Regarding `N#Cc1c(N)nc2sc(C(=O)Nc3cccc(Cl)c3)c(N)c2c1-c1ccc(N2CCNCC2)cc1Cl` [Compound 9q, 3,6-Diamino-4-[2-chloro-4-(piperazin-1-yl)phenyl]-N-(3-chlorophenyl)-5-cyanothieno[2,3-b]pyridine-2-carboxamide hydrochloride], the remaining activity at 10 µM in data set [1] was 72.6 ± 12.8%. The viability at 48 h, 30 µM in data set [2] was -13.1 ± 5.4%. In addition, in data set [3], the activity at 0.3 µM is 6.5 ± 3.1% and the activity at 3 µM was 4.9 ± 3%.
On the same counts, the results for `N#Cc1c(N)nc2sc(C(=O)Nc3ccc(F)cc3)c(N)c2c1-c1cccc(F)c1` [Compound 9i, 3,6-Diamino-5-cyano-4-(3-fluorophenyl)-N-(4-fluorophenyl)thieno[2,3-b]pyridine-2-carboxamide] are 70.9 ± 19.8%, under 50%, 65.8 ± 24.6% and 6.1 ± 4.9%.
On to `N#Cc1c(N)nc2sc(C(=O)Nc3ccc(F)cc3)c(N)c2c1-c1ccc(N2CCOCC2)cc1Cl` [Compound 9x, 3,6-Diamino-4-(2-chloro-4-morpholinophenyl)-5-cyano-N-(4-fluorophenyl)thieno[2,3-b]pyridine-2-carboxamide], for which the remaining activity at 10 µM in data set [1] is 90.2 ± 8.9%. Also, the viability at 48 h, 30 µM in data set [2] stood at 86.1 ± 16%. Besides, in data set [3], the activity at 0.3 µM was 59 ± 43.6% and the activity at 3 µM was 8.7 ± 6.6%.
Turning to `CN(CCNC(=O)OC(C)(C)C)c1ccc(-c2c(C#N)c(N)nc3sc(C(=O)Nc4ccccc4Cl)c(N)c23)c(Cl)c1` [Compound 9ad, tert-Butyl {2-[(3-chloro-4-{3,6-diamino-2-[(2-chlorophenyl)carbamoyl]-5-cyanothieno[2,3-b]pyridin-4-yl}phenyl)(methyl)amino]ethyl}carbamate], the remaining activity at 10 µM in data set [1] is 95 ± 10.7%. In addition, the viability at 48 h, 30 µM in data set [2] is 76.3 ± 24.1%. In data set [3], the activity at 0.3 µM was 57.7 ± 24.1% and the activity at 3 µM is 13.3 ± 9.9%.
For `N#Cc1c(N)nc2sc(C(=O)Nc3ccccc3Cl)c(N)c2c1-c1cccc(F)c1` [Compound 9b, 3,6-Diamino-N-(2-chlorophenyl)-5-cyano-4-(3-fluorophenyl)thieno[2,3-b]pyridine-2-carboxamide], in that order: 102 ± 16.5%, 101 ± 19.6%, 96 ± 1.9% and 46 ± 19.7%.
On to `Cc1cccc(-c2c(C#N)c(N)nc3sc(C(=O)Nc4ccc(Cl)cc4)c(N)c23)c1` [Compound 9e, 3,6-Diamino-N-(4-chlorophenyl)-5-cyano-4-(3-methylphenyl)thieno[2,3-b]pyridine-2-carboxamide], for which the remaining activity at 10 µM in data set [1] is 106 ± 6.5%. Further, in data set [2], the viability at 48 h, 30 µM came to 83.3 ± 20.6%. Moreover, in data set [3], the “SI (Selectivity index for 3D7 erythrocytic forms versus HEK293 cells)” value is on record as over 100, half-maximal inhibition (IC50) required 273 nM, the activity at 0.3 µM was 9.7 ± 6.8% and the activity at 3 µM is 5.6 ± 5.5%.
With `N#Cc1c(N)nc2sc(C(=O)Nc3ccc(Cl)cc3)c(N)c2c1-c1ccc(N2CCCC2)cc1Cl` [Compound 9z, 3,6-Diamino-4-[2-chloro-4-(pyrrolidin-1-yl)phenyl]-N-(4-chlorophenyl)-5-cyanothieno[2,3-b]pyridine-2-carboxamide], the remaining activity at 10 µM in data set [1] is 109 ± 4.9%. Further, in data set [2], the viability at 48 h, 30 µM is 91.9 ± 13.6%. In data set [3], the activity at 0.3 µM is 73.1 ± 22.1% and the activity at 3 µM was 6.4 ± 5.8%.
On the same counts, the results for `Cc1cccc(-c2c(C#N)c(N)nc3sc(C(=O)Nc4ccc(F)cc4)c(N)c23)c1` [Compound 9g, 3,6-Diamino-5-cyano-N-(4-fluorophenyl)-4-(3-methylphenyl)thieno[2,3-b]pyridine-2-carboxamide] are 74.8 ± 21.7%, 67.8 ± 8.1%, 63.8 ± 16.5% and 3.1 ± 2.7%.
For `CN(CCNC(=O)OC(C)(C)C)c1ccc(-c2c(C#N)c(N)nc3sc(C(=O)Nc4ccc(F)cc4)c(N)c23)c(Cl)c1` [Compound 9ac, tert-Butyl {2-[(3-chloro-4-{3,6-diamino-5-cyano-2-[(4-fluorophenyl)carbamoyl]thieno[2,3-b]pyridin-4-yl}phenyl)(methyl)amino]ethyl}carbamate], in that order: 85.7 ± 8.2%, 55.8 ± 25.1%, 30.1 ± 14.2% and 7.5 ± 5.9%.
For `CN(C)CCN(C)c1ccc(-c2c(C#N)c(N)nc3sc(C(=O)Nc4ccc(F)cc4)c(N)c23)c(Cl)c1` [Compound 9ab, 3,6-Diamino-4-(2-chloro-4-{[2-(dimethylamino)ethyl](methyl)amino}phenyl)-5-cyano-N-(4-fluorophenyl)thieno[2,3-b]pyridine-2-carboxamide], in that order: 112 ± 13.9%, -1.4 ± 13.1%, 16.7 ± 19.5% and 1.6 ± 11%.
As to `N#Cc1c(N)nc2sc(C(=O)Nc3ccccc3Cl)c(N)c2c1-c1ccc(N2CCOCC2)cc1Cl` [Compound 9u, 3,6-Diamino-4-(2-chloro-4-morpholinophenyl)-N-(2-chlorophenyl)-5-cyanothieno[2,3-b]pyridine-2-carboxamide], the remaining activity at 10 µM in data set [1] was 110 ± 6.2%. Further, the viability at 48 h, 30 µM in data set [2] was determined as 87 ± 26.7%. Moreover, in data set [3], the activity at 0.3 µM is 74.5 ± 21.2% and the activity at 3 µM was 53.1 ± 29.6%.

A word on the viability: it is a read-out of living cells in per cent, often relative to untreated cells. The IC50 is the point on the concentration scale where inhibition reaches its midpoint.
